Experimental findings from patent US20120165319A1, “INHIBITORS OF INTERLEUKIN-1 BETA CONVERTING ENZYME” (VERTEX PHARMACEUTICALS INCORPORATED, priority 1995, published 2012) are described below.

pIC50, pKi: −log10 of the molar value.

Data set [1] can be described thus: Pharmacokinetic studies in the mouse (i.v. clearance, plasma levels). The class given is in vivo. To be noted: CD-1, plasma, iv, 25 mg/kg, mouse. How it is done:
Pharmacokinetic Studies in the Mouse
Sample Preparation and Dosing
Compounds were dissolved in sterile TRIS solution (0.02M or 0.05M) at a concentration of 2.5 mg/ml. Where necessary to ensure a complete solution, the sample was first dissolved in a minimum of dimethylacetamide (maximum of 5% of total solution volume) then diluted with the TRIS solution.
The drug solution was administered to CD-1 mice (Charles River Laboratories—26-31 g) via the tail vein at a dose volume of 10 ml/kg giving a drug dose of 25 mg/kg.
Mice were dosed in groups of 5 for each timepoint (generally from 2 minutes to 2 hours) then at the appropriate time the animals were anaesthetised with halothane and the blood collected into individual heparinized tubes by jugular severance. The blood samples were cooled to 0° C. then the plasma separated and stored at −20° C. until assayed.
Drug concentration in the plasma samples were determined by HPLC analysis with UV or MS (ESP) detection. Reverse phase chromatography was employed using a variety of bonded phases from C1 to C18 with eluents composed of aqueous buffer/acetonitrile mixtures run under isocratic conditions.
Quantitation was by external standard methods with calibration curves constructed by spiking plasma with drug solutions to give concentrations in the range of 0.5 to 50 μg/ml.
Prior to analysis the plasma samples were deproteinated by the addition of acetonitrile, methanol, trichloroacetic acid or perchloric acid followed by centrifugation at 10,000 g for 10 minutes. Sample volumes of 20 μl to 50 μl were injected for analysis.
The drug was dissolved in sterile 0.02M Tris to give a 2.5 mg/ml solution which was administered to […] of 5 male CD-1 mice via the tail vein at a dose of 25 mg/kg. At each of the following timepoints: 2, 5, 10, 15, 20, 30, 45, 60, 90 and 120 minutes a group of animals was anaesthetised and the blood collected into heparinized tubes. After separation the plasma was stored at −20° C. until assayed.
Aliquots of plasma (150 μl) were treated with 5% perchloric acid (5 μl) then mixed by vortexing and allowed to stand for 90 minutes prior to centrifugation. The resulting supernatant was separated and 20 μl was injected for HPLC analysis.
Aliquots of plasma (100 μl) were diluted with acetonitrile (100 μl) then mixed by vortexing for 20 seconds before centrifugation for 10 minutes. The resulting supernatant was separated and 20 μl was injected for HPLC analysis.

In data set [2] the target is T1, ICE (Homo sapiens, UniProt P29466).
T1 sequence (P29466 120-297 limits assumed): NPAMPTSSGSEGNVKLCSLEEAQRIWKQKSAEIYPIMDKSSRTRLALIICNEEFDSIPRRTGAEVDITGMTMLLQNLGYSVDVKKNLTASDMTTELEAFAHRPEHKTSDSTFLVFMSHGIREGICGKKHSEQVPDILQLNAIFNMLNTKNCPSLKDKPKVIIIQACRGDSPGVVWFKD
T1 sequence (P29466 317-404 limits assumed): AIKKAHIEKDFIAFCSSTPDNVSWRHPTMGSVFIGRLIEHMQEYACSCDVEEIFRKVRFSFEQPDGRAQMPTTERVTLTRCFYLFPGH
The experiment in a line: Enzyme assay with UV-visible substrate (visible ICE assay, Succinyl-Tyr-Val-Ala-Asp-pNitroanilide). The data set is classed as biochemical. In outline: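 Buffer, ICE and inhibitor in DMSO are combined and held 15 min at room temperature. Succinyl-Tyr-Val-Ala-Asp-pNA is then added and absorbance at 405-603 nm tracked for 20 min at 37° C.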

Data set [3] concerns IL-1β, human peripheral blood mononuclear cells (PBMC). The experiment in a line: PBMC cell assay: IL-1β assay with human PBMC or enriched adherent mononuclear cells, LPS-stimulated. To be noted: Homo sapiens, PBMC. The class given is cell-based. In outline: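 Buffy-coat human PBMC at 6×10^6 cells/ml, or adherent monocytes enriched by 1 h adherence (2.5−3.0×10^5 cells/well), are given 5–6 compound dilutions bracketing the ICE Ki (final DMSO 0.1%) plus LPS at a final 5 ng/ml. They are incubated 16–18 hr at 37 °C, 5% CO2, and supernatant mature IL-1β is measured by ELISA, with duplicate cultures and duplicate ELISAs.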

A further data set relates to IL-1β, human whole blood. In words: Whole blood assay for IL-1β production. To be noted: Homo sapiens, * = values obtained upon reassay; read-out: Whole human blood IC50. The data set is classed as cell-based. In outline:
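Human whole blood collected on Na2EDTA was treated with serially diluted compound in saline and then stimulated with LPS at 5.0 ng/ml final, for 16-18 h at 30 °C, in duplicate or triplicate. Plasma IL-1β was measured by ELISA at 1:200 dilution.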

For the next data set, the target named is T2, TX (Homo sapiens, UniProt P49662).
T2 construct: made in house; host or cells: Spodoptera frugiperda (Sf9) insect cells, recombinant baculovirus (pVL1393/TX)
T2 sequence (P49662 81-270 limits assumed): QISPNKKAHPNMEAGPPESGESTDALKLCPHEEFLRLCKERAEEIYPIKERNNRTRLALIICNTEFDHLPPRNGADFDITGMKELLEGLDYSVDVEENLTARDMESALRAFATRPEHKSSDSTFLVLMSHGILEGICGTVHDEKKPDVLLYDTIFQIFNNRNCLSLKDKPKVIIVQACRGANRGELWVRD
T2 sequence (P49662 290-377 limits assumed): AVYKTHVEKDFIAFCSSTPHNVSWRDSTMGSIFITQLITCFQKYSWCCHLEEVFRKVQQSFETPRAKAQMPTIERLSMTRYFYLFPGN
In words: Inhibition of ICE homologs: TX. The class given is biochemical. To be noted: second-order rate constant for inactivation, irreversible inhibitors (Table 2). From the text: Expression of TX in insect cells using a baculovirus expression system. We have subcloned Tx cDNA (Faucheu et al., supra 1995) into a modified pVL1393 transfer vector, co-transfected the resultant plasmid (pVL1393/TX) into insect cells with viral DNA and identified the recombinant baculovirus. After the generation of high titer recombinant virus stock, the medium was examined for TX activity using the visible ICE assay. […] ICE was used as a standard in the assay.
(§1) The selectivity of a panel of reversible inhibitors for ICE homologs is depicted in Table 1. ICE enzyme assays were performed according to Wilson et al (supra 1994) using a YVAD-AMC substrate (Thornberry et al, supra 1992). Assay of TX activity was performed using the ICE substrate under identical conditions to ICE. Assay of CPP32 was performed using a DEVD-AMC substrate (Nicholson et al., supra 1995). In general, there is low selectivity between ICE and TX for a wide range of scaffolds. None of the synthetic ICE compounds tested are effective inhibitors of CPP32.
(§2) Second-order rate constants for inactivation of ICE and ICE homologs with selected irreversible inhibitors are presented below (Table 2). The irreversible compounds studied are broad spectrum inhibitors of ICE and its homologs. Some selectivity, however, is observed with the irreversible compounds comparing inhibition of ICE and CPP32.

In data set [4] the target is T1, ICE. In words: Enzyme assay with fluorescent substrate (Acetyl-Tyr-Val-Ala-Asp-AMC); Ki and second order rate constants kinact. The class given is biochemical. How it is done:
2. Enzyme Assay with Fluorescent Substrate
This assay is run essentially according to Thornberry et al. (Nature 356: 768-774 (1992)), using substrate 17 referenced in that article. The substrate is: Acetyl-Tyr-Val-Ala-Asp-amino-4-methylcoumarin (AMC). The following components are mixed:
The assay is run in a 96 well microtiter plate. Buffer and ICE are added to the wells. The components are left to incubate at 37° C. for 15 minutes in a temperature-controlled wellplate. After the 15 minute incubation, the reaction is started by adding substrate directly to the wells and the reaction is monitored @37° C. for 30 minutes by following the release of the AMC fluorophore using an excitation wavelength for 380 nm and an emission wavelength of 460 nm. A linear fit of the data for each well is performed and a rate is determined in fluorescence units per second.
For determination of enzyme inhibition constants (Ki) or the mode of inhibition (competitive, uncompetitive or noncompetitive), the rate data determined in the enzyme assays at varying inhibitor concentrations are computer-fit to standard enzyme kinetic equations (see I. H. Segel, Enzyme Kinetics, Wiley-Interscience, 1975).
The determination of second order rate constants for irreversible inhibitors was performed by fitting the fluorescence vs time data to the progress equations of Morrison. Morrison, J. F., Mol. Cell. Biophys., 2, pp. 347-368 (1985). Thornberry et al. have published a description of these methods for measurement of rate constants of irreversible inhibitors of ICE. Thornberry, N. A., et al. Biochemistry, 33, pp. 3923-3940 (1994). For compounds where no prior complex formation can be observed kinetically, the second order rate constants (kinact) are derived directly from the slope of the linear plots of kobs vs. [I]. For compounds where prior complex formation to the enzyme can be detected, the hyperbolic plots of kobs vs. [I] are fit to the equation for saturation kinetics to first generate Ki and k′. The second order rate constant kinact is then given by k′/Ki.
as §1, §2

A further data set relates to U937 cells. The experiment in a line: Fas-induced apoptosis in U937 cells. Conditions: Homo sapiens, U-937, read-out: Inhibition of apoptosis.

Description for U937 cells: Fas-Induced Apoptosis in U937 cells. Compounds were evaluated for their ability to block anti-Fas-induced apopotosis. […] We used this cell line for apoptosis studies. U937 cells were seeded in culture at 1×10^5 cells/ml and grown to ˜5×10^6 cells/ml. For apoptosis experiments, 2×10^6 cells were plated in 24-well tissue culture plates in 1 ml RPMI-1640-10% FBS and stimulated with 100 ng/ml anti-Fas antigen antibody (Medical and Biological Laboratories, Ltd.). After a 24 hr incubation at 37° C., the percentage of apoptotic cells was determined by FACS analysis using ApoTag reagents.

A word on the clearance: it is the rate of elimination divided by the concentration. In general, pKi refers to −log10 of the Ki, conventionally taken in molar units. A word on the pIC50: it is −log10 of the IC50, conventionally taken in molar units. What is called melting point is the temperature of the solid-liquid transition. The compound `O=C[C@H](CC(=O)O)NC(=O)[C@@H]1CCCN2CCC[C@@H](NC(=O)c3ccccc3)C(=O)N12` [Compound 246b, [3S(1S,9R)]3-(9-Benzoylamino-1,2,3,4,7,8,9,10-octahydro-10-oxo-6H-pyridazino[1,2-a][1,2]diazepine-1-carboxamido)-4-oxobutanoic acid] gave a melting point of 115 to 119 °C. The clearance in data set [1] (Table 17) was determined as 87 mL/min/kg. The pKi at ICE [2] (Table 17) is 4.52. This compound gave a negative-log IC50 (pIC50) in data set [3] (Table 17) of less than 4.52.
For the compound `O=C[C@H](CC(=O)O)NC(=O)[C@@H]1CCCN2CCC[C@H](NC(=O)CCc3ccccc3)C(=O)N12` [Compound 47b, [3S(1S,9S)]3-(Octahydro-10-oxo-9-(3-phenylpropionylamino)-6H-pyridazino-[1,2-a][1,2]diazepine-1-carboxamido)-4-oxobutanoic acid], the melting point was 87 to 90 °C. This compound registered a clearance in data set [1] of 338 mL/min/kg. In addition, the pIC50 in the data set with IL-1β, human whole blood was greater than 6.22.
In the case of `O=C[C@H](CCC(=O)O)NC(=O)[C@@H]1CCCN2C(=O)CC[C@H](NC(=O)c3ccccc3)C(=O)N12` [Compound 235e, [4S,(1S,9S)]-4-[9-(Benzoylamino)-6,10-dioxo-1,2,3,4,7,8,9,10-octahydro-6H-pyridazino-[1,2-a][1,2]diazepine-1-carboxamido]-5-oxopentanoic acid], the melting point is 142 °C (dec.). For the same compound, the clearance in data set [1] turned out to be 36 mL/min/kg. On ICE [2] (Table 5), this compound had a pKi of 6.29. The compound further gave a pIC50 in data set [3] (* = values obtained upon reassay) of 5.32.
One may read the inhibition as the relative decrease from the control value, in per cent. For the compound `O=C(O)C[C@H](NC(=O)CN1C(=O)[C@@H](NC(=O)CCc2ccccc2)CN(C(=O)CCc2ccccc2)c2ccccc21)C(=O)COC(=O)c1c(Cl)cccc1Cl` [Compound 108a, 2,6-Dichlorobenzoic acid 4-carboxy-2-oxo-3(S)-{2-[2-oxo-5-(3-phenylpropionyl)-3(S)-(3-phenylpropionylamino)-2,3,4,5-tetrahydrobenzo[b][1,4]diazepin-1-yl]acetylamino}butyl ester], the “kinact (TX)” value at TX is 25,000 M^−1 s^−1. On ICE [4] (Table 6), the “Fluorescent Assay kinact” value is reported as 1 × 10^5 m^−1 s^−1. The “kinact (ICE)” value at ICE [4] (second-order rate constant for inactivation, irreversible inhibitors (Table 2)) is 100,000 M^−1 s^−1. The inhibition at 20 µM with U937 cells is greater than 75%.
